Source: patent publication US5091403A, “Sulfinyl imidazole derivatives and antiulcer agents containing the same” (Nippon Chemiphar Co., Ltd., priority 1989, dated 1992)
pIC50: −log10 of the molar value. Read-outs that look alike come from different tables or passages of the source.

Legend:
[1] = system: secretion of gastric acid; assay: Inhibitory action against the secretion of gastric acid (Test II), Heidenhain pouch dogs, histamine, intravenous; assay type: in vivo, dog (male beagle); settings: 3 mg/kg, intravenously, one hour after initiation of histamine; 30 min post-drug vs pre-drug
Method: (§1) Heidenhain pouch dogs produced from male beagle dogs were fasted. To the dogs were then administered intra venously histamine hydrochloride (gastric juice secretion inducing agent) continuously at a dose of 160 μg/kg/hr. The gastric juice was collected at an interval of 15 min. to measure the amount of gastric juice and acid output to determine an acid secretion amount (mEq/15 min).
The test compound was intravenously administered to the dogs at one hour after the initiation of histamine ad ministration.
The inhibitory action was determined by comparing the acid secretion amount between pre-drug value (just before drug administration) and post-drug value (30 min. after drug administration).

H^+ +K^+ ATPase [2] = target: T1, H^+ +K^+ ATPase (Oryctolagus cuniculus, UniProt P27112); assay: H^+ +K^+ ATPase Inhibitory Effects (Test 2); assay type: biochemical, rabbit; settings: read-out: H^+ + K^+ ATPase inhibitory action IC50
T1 construct: a rabbit gastric mucosa were isolated; from tissue; host or cells: rabbit gastric mucosa; vesicles from a discontinuous Ficoll gradient
T1 sequence (P27112 whole entry): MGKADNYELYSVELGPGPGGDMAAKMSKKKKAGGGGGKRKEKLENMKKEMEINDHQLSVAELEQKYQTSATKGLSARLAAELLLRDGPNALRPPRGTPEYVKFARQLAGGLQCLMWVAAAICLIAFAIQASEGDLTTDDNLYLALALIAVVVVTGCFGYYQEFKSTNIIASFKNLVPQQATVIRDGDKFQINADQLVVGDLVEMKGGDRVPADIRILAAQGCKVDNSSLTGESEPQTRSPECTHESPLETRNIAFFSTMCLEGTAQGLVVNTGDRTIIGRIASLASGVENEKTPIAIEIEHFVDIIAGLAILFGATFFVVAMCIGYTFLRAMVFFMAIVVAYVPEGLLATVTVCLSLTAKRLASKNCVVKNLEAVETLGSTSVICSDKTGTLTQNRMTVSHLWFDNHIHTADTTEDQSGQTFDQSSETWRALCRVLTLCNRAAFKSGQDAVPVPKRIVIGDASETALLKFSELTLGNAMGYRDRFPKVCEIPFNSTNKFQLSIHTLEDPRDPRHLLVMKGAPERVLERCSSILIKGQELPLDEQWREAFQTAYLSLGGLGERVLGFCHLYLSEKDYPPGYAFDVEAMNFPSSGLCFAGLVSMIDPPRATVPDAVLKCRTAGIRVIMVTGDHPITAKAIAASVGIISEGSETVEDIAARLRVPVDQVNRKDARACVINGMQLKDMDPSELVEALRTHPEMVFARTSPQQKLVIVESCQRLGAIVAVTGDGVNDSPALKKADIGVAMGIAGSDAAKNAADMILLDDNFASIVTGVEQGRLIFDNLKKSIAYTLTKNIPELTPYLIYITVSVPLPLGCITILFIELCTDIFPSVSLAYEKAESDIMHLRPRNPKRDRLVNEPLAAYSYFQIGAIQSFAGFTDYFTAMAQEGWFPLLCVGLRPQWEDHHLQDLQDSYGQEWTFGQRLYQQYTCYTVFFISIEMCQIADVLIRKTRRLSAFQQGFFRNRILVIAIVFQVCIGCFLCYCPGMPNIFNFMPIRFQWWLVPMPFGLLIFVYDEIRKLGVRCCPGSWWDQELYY
T1 sequence (P18597 whole entry partner): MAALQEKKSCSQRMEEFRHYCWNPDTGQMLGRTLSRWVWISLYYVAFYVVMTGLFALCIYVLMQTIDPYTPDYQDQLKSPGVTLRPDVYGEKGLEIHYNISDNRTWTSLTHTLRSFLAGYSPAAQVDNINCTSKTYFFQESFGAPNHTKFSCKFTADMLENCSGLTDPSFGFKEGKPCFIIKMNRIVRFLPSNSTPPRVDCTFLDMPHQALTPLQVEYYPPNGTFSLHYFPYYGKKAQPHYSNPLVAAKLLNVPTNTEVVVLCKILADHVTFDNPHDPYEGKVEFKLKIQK
Method: (§2) Following the method of Forte et al (J. Applied Physiol., 32, 714.717 (1972)), a rabbit gastric mucosa were isolated. A vesicle containing H^+ +K^+ ATPase was prepared by centrifuging the cells in Ficoll of discontinuous density gradient according to G. Saccomani et al (Biochim. Biophys. Acta, 465. 311-330 (1977)). After the enzyme was incubated at room temperature for 25 min. in 0.5 ml of a solution which contained 5 mM of an imidazole buffer (pH 6.0) and 2 × 10^-4 M of 2-[2-(2-methoxyethylamino)benzylsulfinyl] imidazole (the compound of Example 1; the test compound), the mixture was heated to 37° C. The mixture was then allowed to stand for further 5 min. To the mixture was added 0.5 ml of a solution which contained 4 mM of magnesium chloride, 80 mM of an imidazole buffer (pH 7.4), 20 mM of potassium chloride and 4 mM of ATP. The resulting mixture was reacted at 37° C. for 15 min. and 1 ml of 24 % trichloroacetic acid was then added to terminate the reaction. The inorganic phosphorus liberated was quantitatively determined by the method proposed by Taussky and Shorr (J. Biol. Chem., 202, 675-685 (1953)).
(§3) The above procedure was repeated except for not using potassium chloride to determine […] in the absence of potassium chloride. The desired K^+ -dependent ATPase activity was calculated by subtracting the ATPase activity value determined in the absence of KCl from the ATPase activity value determined in the presence of KCl.
the enzyme was prepared in the same manner described in the above Test 1. After the enzyme was incubated at room temperature for 25 min. in 0.5 ml of a solution which contained 5 mM of an imidazole buffer (pH 6.0 or pH 7.4) and various concentrations of test compound, the mixture was heated to 37° C. The mixture was then allowed to stand for further 5 min. The value of H^+ +K^+ ATPase inhibitory action of each test compound was determined int he same manner described in the above Test 1.

[3] = system: secretion of gastric acid; assay: Inhibitory action against the secretion of gastric acid (Test I), pylorus-ligated rats; assay type: in vivo, rat (male Donryu); settings: intraduodenally, 4 hours, vs vehicle control
Method: Male Donryu rats having a body weight of 200 to 250 g were fasted (while allowing free access to water) for 24 hrs. in accordance with the conventional method [Shay, H. et al, Gastroenterology, 5, 43.61 (1945)]. Under ether anesthesia the pylorus was ligated and 2-[2-(2-methoxyethylamino)benzylsulfinyl] imidazole (the compound of Example 1; the test compound) was administered intraduodenally. Four hours later, each rat was killed and the stomach was removed to collect the gastric juice. The inhibitory action was determined by comparing the acid output which was determined by titration to pH 7.0 with 0.1.N sodium hydroxide by means of an automatic titrator, with the corresponding value of a control rat prepared in the same manner except that a vehicle alone was administered.

H^+ +K^+ ATPase [4] = target: T1, H^+ +K^+ ATPase; assay: H^+ +K^+ ATPase Inhibitory Effects (Test 1); assay type: biochemical, rabbit; settings: 2 × 10^-4 M test compound; incubation at pH 6.0, 25 min, room temperature; read-out: value of H^+ +K^+ ATPase inhibitory action
Method: as §2, with “The resulting mixture was reacted at 37° C. for 15 min. and 1 ml of 24 % trichloroacetic acid was then added to terminate the reaction.” left out
as §3

[5] = system: secretion of gastric acid; assay: Inhibitory action against the secretion of gastric acid (Test II, other experiment), Heidenhain pouch dogs, histamine, oral; assay type: in vivo, dog (male beagle); settings: orally, 2 hours before initiation of histamine, vs vehicle control dog
Method: as §1
At the other experiment, the test compounds mere administrated orally 2 hours before the initiation of histamine administration, and the inhibitory action was determined by comparing the acid secretion amount wit the corresponding amount of a control dog prepared in the same manner except that a vehicle alone was administered.

Acute toxicity test = assay type: in vivo, rat (male SD); settings: orally, observed for 2 days
Description: Male SD rats having a body weight of about 190 g were orally administered with compound of Example 8. The rats were then observed for 2 days.

Compound | Suppressive action (acid secretion amount) [1] | pIC50 (H^+ +K^+ ATPase [2]; pH 6.0) | pIC50 (H^+ +K^+ ATPase [2]; pH 7.4) | inhibitory action (acid output) ([3]; 10 mg/kg) | inhibitory action (acid output) ([3]; 30 mg/kg) | inhibition at 200 µM (H^+ +K^+ ATPase [4]) | Suppressive action (acid secretion amount) [5] | MLD (Acute toxicity test)
COCCNc1cccc(C)c1C[S+]([O-])c1ncc[nH]1 (stereo not shown) [Example 4, 2-[2-(2-methoxyethylamino)-6-methylbenzylsulfinyl]imidazole] | 89% | 5.36 | 4.59 | – | – | – | – | –
COCCNc1ccccc1C[S+]([O-])c1ncc[nH]1 (stereo not shown) [Example 1, 2-[2-(2-methoxyethylamino)benzylsulfinyl]imidazole] | 89% | 4.37 | 3.74 | 75.9% | 94.5% | 73.1% | – | –
CCOCCNc1ccc(C)cc1C[S+]([O-])c1ncc[nH]1 (stereo not shown) [Example 7, 2-[2-(2-ethoxyethylamino)-5-methylbenzylsulfinyl] imidazole] | – | 4.74 | 4.03 | – | – | – | – | –
COCCNc1ccc(C)cc1C[S+]([O-])c1ncc[nH]1 (stereo not shown) [Example 3, 2-[2-(2-methoxyethylamino)-5-methylbenzylsulfinyl]imidazole] | 85% | 4.60 | < 3.52 | – | – | – | 100% | –
COCCCNc1ccccc1C[S+]([O-])c1ncc[nH]1 (stereo not shown) [Example 6, 2-[2-(3-methoxypropylamino)benzylsulfinyl]imidazole] | 92% | 4.89 | 4.22 | – | – | – | – | –
CCOCCNc1ccccc1C[S+]([O-])c1ncc[nH]1 (stereo not shown) [Example 5, 2-[2-(2-ethoxyethylamino)benzylsulfinyl]imidazole] | 98% | 4.66 | 4.28 | – | – | – | – | –
COCCNc1cc(C)c(OC)c(C)c1C[S+]([O-])c1ncc[nH]1 (stereo not shown) [Example 8, 2-[4,6-dimethyl-5-methoxy-2-(2-methoxyethylamino)benzylsulfinyl]imidazole] | – | 6.34 | 4.96 | – | – | – | 100% | ≥ 1,000 mg/kg
CC(C)OCCNc1ccccc1C[S+]([O-])c1ncc[nH]1 (stereo not shown) [Example 2, 2-[2-(2-isopropoxyethylamino)benzylsulfinyl]imidazole] | 97% | 4.34 | 3.72 | – | – | – | – | –
